In patent US20260083126A1, “ANTIMICROBIAL COMPOSITIONS” (AHV International B.V., priority 2022, published 2026):
Entries after “also recorded” stand apart in the source; their conditions may differ.

Key:
[1] = test system: HepG2 cell line; assay: MTT cytotoxicity test; assay type: cell-based, human; conditions: 24 h, 7.8 μM to 1 mM, emulsified with Tween-80/DMSO
Description: Scope. As standard tests cytotoxicity is measured on Caco-2 and HepG2 cell lines. Cytotoxicity of mentioned cell lines was determined by measuring the amount of converted MTT (3-(4,5-dimethylthiazol-2-yl)-2,5-diphenyltetrazolium bromide) by a mitochondrial dehydrogenase after exposure of various concentrations of the antimicrobial compounds. In living cells the dehydrogenase converts the soluble MTT into water insoluble purple formazan crystals that can not pass the cell membrane. The higher the metabolic activity of the cell, the more purple crystals are formed, the lower the cytotoxicity of the antimicrobial compound. HepG2 adherent cells were isolated from human liver and show epithelial morphology. Culture condition of the cells were followed based on the standard protocols. HepG2 cell line was cultured in 75-cm^2 culture flasks. Dulbecco's modified Eagle's minimum essential medium (DMEM)+Glutamax, supplemented with 10% (v/v) inactivated fetal calf serum (FCS) (Gibco), and penicillin (100 U/ml.)/streptomycin (100 μg/ml.) was utilized as medium for the growing cells. The cells were preserved in an incubator to provide them with the optimum moisture and temperature (humidified atmosphere of 95% air and 5% CO2 at 37° C. for 72 hours). The cells were grown on flat bottom 96-well plates to the appropriate density to run the experiments. The cells were exposed to increasing concentrations of emulsified test compound (8 concentration, ranging from 7.8 μM to 1 mM) in standard culture medium (Catalogue 31331028, ThemoFischer Scientific) for each cell line. It should be noted that all the experiments were conducted in FBS (Catalog A3840101, ThermoFischer Scientific) and antibiotic free medium. The concentration of Tween-80 and DMSO that is present in the assay to emulsify the antimicrobial compound was in the range from 0,007% to 1%. The cells were incubated for 24 h with emulsified test compound and the assay was performed based on the standard protocol. By the end of the experiment the medium (cell supernatants) was removed and the lysis buffer (0.04 M hydrochloric acid, in propan-2-ol) was added to each well to solubilize the purple formazan crystals. As the final step, the absorbance was recorded by a multi-well reader at 595 nm. Control experiment with emulsifiers Tween 80 and DMSO but without antimicrobial compounds was performed in a same way on both cell lines. The results from all experiments were expressed as mean #standard error of the mean (SEM) conducted in triplicate (three wells/condition) of three independent experiments. Differences between results were statistically evaluated using One-way ANOVA with Bonferroni post-hoc test.

[2] = test system: Staphylococcus epidermis ATCC 35984 biofilm; assay: MBIC assay (crystal violet); assay type: cell-based, Staphylococcus epidermidis; conditions: 48 h at 37° C., absorbance 540 nm
Description: The exact weighed amount was noted and the volume of solvent to reach a 80 mM dilution calculated. Half of the volume was added first, by adding Tween 80 and let stand for 5 minutes. In a second step, the other half of the volume DMSO was added and resuspended to help the dilution process. The closed tube was inverted 5-10 times and then vortexed very thoroughly for at least 30 seconds. If after this procedure crystals were still visible, the tube was placed in a shaker at 37° C. at 150 rpm for at least 30 minutes (it is indicated if the dissolution period was longer than 2 h). […] In case of Bis(4-Chlorophenyl) thiosulfonate, a lower concentrated stock solution of 2 mM needed to be prepared. For that, the required amount of compound was weighed in and 2% v/v Tween80 and 2% v/v DMSO of the end volume of the stock solution was added to the substance. This mix was heated in a water bath set to 40° C. and occasionally shaken. When the whole amount of the substance reached dissolution, the volume was filled up with growth medium until the end volume. This 2 mM stock solution of Bis(4-Chlorophenyl) thiosulfonate was used in the MIC plate and diluted two-fold, resulting in a testing range of Bis(4-Chlorophenyl) thiosulfonate from 1 mM to 0.002 mM.
Frozen aliquots of Staphylococcus epidermis ATCC 35984 and Pseudomonas aeruginosa ATCC 27853 were used to inoculate a tryptic soy agar (TSA) plate and were incubated overnight at 37° C. After incubation 3-5 well-isolated colonies with the same morphology were selected from the TSA plate and resuspended in 2 ml 0.9% saline solution with 3-6 glass beads and vortexed. The optical density of the bacterial suspension was measured at 600 nm (OD600) with a spectrophotometer (Evolution™ 201/220 UV-Visible Spectrophotometer, Thermo Fisher Scientific) and diluted to an OD600 of 0.2. The MBIC assay was performed in a 96-microtiter plate. […] The solution was resuspended and transferred to a flat-bottom 96-well plate and the absorbance measured at 540 nm with the spectrophotometer. […]

Compound | cytotoxic effect on HepG2 cells (MTT) [1] | S. epidermidis MBIC90 [2] [mM]
Clc1ccc(SSc2ccc(Cl)cc2)cc1 [Bis (4-chlorophenyl) disulfide, Bis(4-chlorophenyl) disulfide] | cytotoxic effects | >4
O=S(=O)(Sc1ccc(Cl)cc1)c1ccc(Cl)cc1 [Bis (4-chlorophenyl) thiosulfonate, Bis(4-chlorophenyl) thiosulfonate] | cytotoxic effects | 
Fc1ccc(SSc2ccc(F)cc2)cc1 [Bis (4-fluorophenyl) disulfide, Bis(4-fluorophenyl) disulfide] | cytotoxic effects | 
CC(C)SS(=O)(=O)C(C)C [Di-isopropyl thiosulfonate] | cytotoxic effects; also recorded: cytotoxicity is lowest | 
CCCSSCCC [Di-n-propyl disulfide, reference compound] |  | 4
CCCSS(=O)(=O)CCC [Di-n-propyl thiosulfonate, reference compound] |  | 2
